Drawing on patent US9987277B2, “Carboxamide 4-[(4-pyridyl)amino] pryimidines for the treatment of hepatitis C” (Janssen Sciences Ireland UC, priority 2006, dated 2018), this text covers EC50 for twelve molecules.

The assay has as its system HCV type 1b replicon (NS3-NS5B) in Huh-7 luc/neo cells. Kind of assay: HCV replicon assay (Huh-Luc luciferase). The format is cell-based. The following applies: Hepatitis C virus, Huh-7, 72 h, three days incubation, luciferase activity. The text has this: The compounds of formula (I) were examined for activity in the inhibition of HCV RNA replication in a cellular assay. […] The cellular assay was based on a bicistronic expression construct, as described by Lohmann et al. (1999) Science vol. 285 pp. 110-113 with modifications described by Krieger et al. (2001) Journal of Virology 75: 4614-4624, in a multi-target screening strategy. In essence, the method was as follows.
The assay utilized the stably transfected cell line Huh-7 luc/neo (hereafter referred to as Huh-Luc). This cell line harbors an RNA encoding a bicistronic expression construct comprising the wild type NS3-NS5B regions of HCV type 1b translated from an Internal Ribosome Entry Site (IRES) from encephalomyocarditis virus (EMCV), preceded by a reporter portion (FfL-luciferase), and a selectable marker portion (neo^R, neomycine phosphotransferase). The construct is bordered by 5′ and 3′ NTRs (non-translated regions) from HCV type 1b. Continued culture of the replicon cells in the presence of G418 (neo^R) is dependent on the replication of the HCV RNA. The stably transfected replicon cells that express HCV RNA, which replicates autonomously and to high levels, encoding inter alia luciferase, are used for screening the antiviral compounds.
The replicon cells were plated in 384 well plates in the presence of the test and control compounds which were added in various concentrations. Following an incubation of three days, HCV replication was measured by assaying luciferase activity (using standard luciferase assay substrates and reagents and a Perkin Elmer ViewLux™ ultraHTS microplate imager). Replicon cells in the control cultures have high luciferase expression in the absence of any inhibitor. The inhibitory activity of the compound on luciferase activity was monitored on the Huh-Luc cells, enabling a dose-response curve for each test compound. EC50 values were then calculated, which value represents the amount of the compound required to decrease by 50% the level of detected luciferase activity, or more specifically, the ability of the genetically linked HCV replicon RNA to replicate.
The following Table 1 lists compounds that were tested for activity in the inhibition of HCV RNA replication in a cellular assay according to the procedure described above. Table 1 provides as well structure characterization data for the compounds of formula (I) as described herein. […] In each case, the expected parent ion was observed, and the Table further provides the LC conditions under which the mass spectrum was measured as well as the retention time of the observed product.
Background: Replicon systems follow genome replication, usually without infectious particles.

As usually defined, the EC50 is the concentration needed to bring the measured effect to its halfway point. The low end stands for higher potency in that assay, the high end for lower potency in that assay. For `COc1cnc(-c2cc(Cl)ccc2F)nc1Nc1ccncc1C(=O)NCCCN1CCOCC1` [compound 9], the EC50 is 1100 nM. Regarding `COc1cnc(-c2cc(Cl)ccc2F)nc1Nc1ccncc1C(=O)NCC(F)(F)F` [compound 2], the EC50 was 1160 nM. `CCOC(=O)CNC(=O)c1cnccc1Nc1nc(-c2cc(Cl)ccc2F)ncc1OC` [compound 4] came in with an EC50 of 4620 nM. This EC50 is about 4-fold higher than that of the molecule before. Take `COc1cnc(-c2cc(Cl)ccc2F)nc1Nc1ccncc1C(=O)NCCCN1CCCCC1C` (stereo not drawn) [compound 13]: the EC50 was 550 nM. As for `COc1cnc(-c2cc(Cl)ccc2F)nc1Nc1ccncc1C(=O)NCCN` [compound 14], the figure is 3670 nM.

`COc1cnc(-c2cc(Cl)ccc2F)nc1Nc1ccncc1C(=O)NCCNCC(C)O` (stereo not drawn) [compound 11] gave an EC50 of 1140 nM. As for `O=C(NC1CC1)c1cnccc1Nc1nc(-c2cc(Cl)ccc2F)ncc1C1CCCC1` [compound 6], the figure is 12700 nM; as for `COc1cnc(-c2cc(Cl)ccc2F)nc1Nc1ccncc1C(=O)NCCNCCO` [compound 10], 1480 nM; as for `COc1cnc(-c2cc(Cl)ccc2F)nc1Nc1ccncc1C(=O)NCCCn1ccnc1` [compound 5], 921 nM. Regarding `COc1cnc(-c2cc(Cl)ccc2F)nc1Nc1ccncc1C(=O)NCCCN1CCCC1=O` [compound 1], it took 84 nM to reach a half-maximal effect (EC50).

For `COc1cnc(-c2cc(Cl)ccc2F)nc1Nc1ccncc1C(=O)NC[C@H]1CCCO1` [compound 3], the 50% effective concentration (EC50) amounted to 2640 nM. As for `O=C(NCCO)c1cnccc1Nc1nc(-c2cc(Cl)ccc2F)ncc1C1CCCC1` [compound 8], the figure is 16400 nM.
